In US10961526B2, “Transformant, and method for producing protocatechuic acid or salt thereof using same” (RESEARCH INSTITUTE OF INNOVATIVE TECHNOLOGY FOR THE EARTH, priority 2016, dated 2021):

Tests used:
Type in all cases: cell-based
[1] = system: Corynebacterium glutamicum strain R; assay: Inhibition by protocatechuic acid of growth in aerobic culture (OD610)
Text: (§1) In a case where a product that has cytotoxicity, such as protocatechuic acid, is produced by the fermentation process using microorganisms, it is important that a host microorganism has resistance against the product, that is, hardly suffers from growth inhibition by the product. Then, for studying the degree of resistance against protocatechuic acid of Corynebacterium glutamicum, which is preferable as a host microorganism in the present invention, in comparison with other microorganisms, studies were made on the inhibition by protocatechuic acid of the growth of Corynebacterium glutamicum, Escherichia coli, Bacillus subtilis, Pseudomonas putida, Rhodococcus erythropolis, and Saccharomyces cerevisiae in aerobic culture.
Corynebacterium glutamicum strain R was applied to an A-agar plate [obtained by dissolving the following in distilled water 1 L: (NH2)2CO 2 g, (NH4)2SO4 7 g, KH2PO4 0.5 g, K2HPO4 0.5 g, MgSO4.7H2O 0.5 g, 0.06% (w/v) Fe2SO4.7H2O+0.042% (w/v) MnSO4.2H2O 1 ml, 0.02% (w/v) biotin solution 1 ml, 0.01% (w/v) thiamine solution 2 ml, yeast extract 2 g, vitamin assay casamino acid 7 g, agar 20 g] containing glucose at 4%, and was cultured at 33° C. for 16 hours. […] The growth of bacterial cells was determined by measuring OD610.
(§2) How the addition of protocatechuic acid to medium influenced aerobic growth of each strain was analyzed, and the results are shown in FIG. 2.

[2] = system: Corynebacterium glutamicum strain R; assay: Glucose consumption under presence of high concentration of protocatechuic acid; conditions: high concentration of protocatechuic acid (0, 50, 250, 500 mM), 24-hour culture, 33° C.
Description: As indicated in Reference Example 1, Corynebacterium glutamicum was able to grow even under the presence of a high concentration of protocatechuic acid. Then, a glucose consumption ability of Corynebacterium glutamicum under the presence of a high concentration of protocatechuic acid was further studied in the following manner.
Corynebacterium glutamicum strain R was applied to the above-described A-agar plate containing glucose 4%, and was cultured at 33° C. for 16 hours. One platinum loop of Corynebacterium glutamicum strain R grown on the above-described plate was inoculated in a test tube having therein 10 ml of the above-described A-liquid medium containing glucose 4%, and was subjected to aerobic shaking culture at 33° C. for 16 hours. Corynebacterium glutamicum strain R grown under the above-described conditions was inoculated in 10 ml of the above-described A-liquid medium containing glucose 4% so that the initial bacterial cell concentration OD610=0.2. Simultaneously, protocatechuic acid was added so that the final concentrations thereof became 0, 50, 250, 500 mM, and aerobic shaking culture was carried out at 33° C. After 24-hour culture, culture solutions were collected, and centrifuged (4° C., 15,000×g, 5 minutes). Concentrations of glucose in the supernatants obtained were measured by a glucose sensor in the same manner as Example 2 to be described below. […]

[3] = system: Escherichia coli strain K12; assay: Inhibition by protocatechuic acid of growth in aerobic culture (OD610); conditions: LB-liquid medium, aerobic shaking culture 37° C.
Text: as §1
(§3) Further, Escherichia coli strain K12, Bacillus subtilis strain NBRC14144, Pseudomonas putida strain ATCC700801, and Rhodococcus erythropolis strain ATCC27854 were applied to LB-agar plate [containing 1% polypeptone, 0.5% yeast extract, 0.5% sodium chloride, and 1.5% agar]. Escherichia coli strain K12 and Bacillus subtilis strain NBRC14144 were cultured at 37° C. for 16 hours, while Pseudomonas putida strain ATCC700801 and Rhodococcus erythropolis strain ATCC27854 were cultured at 30° C. for 16 hours. Each strain grown on the plate described above was inoculated in 10 ml of LB-liquid medium [1% polypeptone, 0.5% yeast extract, and 0.5% sodium chloride]. Escherichia coli strain K12 and Bacillus subtilis strain NBRC14144 were subjected to aerobic shaking culture at 37° C. for 16 hours, while Pseudomonas putida strain ATCC700801 and Rhodococcus erythropolis strain ATCC27854 were subjected to aerobic shaking culture at 30° C. for 16 hours. Each strain grown under the above-described conditions was inoculated in 10 ml of the LB-liquid medium so that the initial bacterial cell concentration OD610=0.1, and simultaneously protocatechuic acid was added so that the final concentrations were 0, 25, 50, 100, 250, 500 mM. Escherichia coli strain K12 and Bacillus subtilis strain NBRC14144 were subjected to aerobic shaking culture at 37° C., while Pseudomonas putida strain ATCC700801 and Rhodococcus erythropolis strain ATCC27854 was subjected aerobic shaking culture at 30° C. The growth of bacterial cells was determined by measuring OD610.
as §2

[4] = system: Pseudomonas putida strain ATCC700801; assay: as above; conditions: LB-liquid medium, aerobic shaking culture 30° C.
Text: as §1, §3, §2

[5] = system: Bacillus subtilis strain NBRC14144; assay: as above; conditions: LB-liquid medium, aerobic shaking culture 37° C.
Text: as §1, §3, §2

[6] = system: Rhodococcus erythropolis strain ATCC27854; assay: as above; conditions: LB-liquid medium, aerobic shaking culture 30° C.
Text: as §1, §3, §2

[7] = system: Saccharomyces cerevisiae strain NBRC2376; assay: as above; conditions: YPD liquid medium, aerobic shaking culture 30° C.
Text: as §1
Further, Saccharomyces cerevisiae strain NBRC2376 was applied to YPD agar plate [2% polypeptone, 1% yeast extract, 2% glucose, and 1.5% agar], and was cultured at 30° C. for 16 hours. Saccharomyces cerevisiae strain NBRC2376 on the plate described above was inoculated in YPD liquid medium [2% polypeptone, 1% yeast extract, and 2% glucose], and was subjected to aerobic shaking culture at 30° C. for 16 hours. […] The growth of bacterial cells was determined by measuring OD610.
as §2

Compound: O=C(O)c1ccc(O)c(O)c1 [protocatechuic acid]
- growth capacity of Corynebacterium glutamicum ([1]; 500 mM protocatechuic acid): robust growth capacity
- growth of Corynebacterium glutamicum strain R ([1]; 250 to 500 mM of protocatechuic acid, A-liquid medium with glucose 4%, aerobic shaking culture 33° C.): robust growth
- decrease in the saccharide consumption by Corynebacterium glutamicum [2]: small
- growth of Escherichia coli strain K12 ([3]; 100 mM protocatechuic acid): significantly inhibited
- growth of Escherichia coli strain K12 ([3]; 250 mM protocatechuic acid): substantially completely inhibited
- growth of Pseudomonas putida strain ATCC700801 ([4]; 100 mM protocatechuic acid): strongly inhibited
- growth of Pseudomonas putida strain ATCC700801 ([4]; 250 mM protocatechuic acid): substantially completely inhibited
- growth of Bacillus subtilis strain NBRC14144 ([5]; 250 mM protocatechuic acid): significantly inhibited
- growth of Bacillus subtilis strain NBRC14144 ([5]; 500 mM protocatechuic acid): substantially completely inhibited
- growth of Rhodococcus erythropolis strain ATCC27854 ([6]; 250 mM protocatechuic acid): strongly inhibited
- growth of Rhodococcus erythropolis strain ATCC27854 ([6]; 500 mM protocatechuic acid): substantially completely inhibited
- growth of Saccharomyces cerevisiae strain NBRC2376 ([7]; 250 mM protocatechuic acid): inhibited
- growth of Saccharomyces cerevisiae strain NBRC2376 ([7]; 500 mM protocatechuic acid): significantly inhibited
